Results published in patent publication US5354843A, “Flanking peptides of calcitonin and processes for their manufacture” (Ciba-Geigy Corporation, priority 1988, dated 1994).

Assay: isoelectric point
Type: physicochemical
From the text: FAB-MS: MH^+ 6220 (calculated molecular weight: 6220), isoelectric point: 4.2 (calculated: 4.04).

- isoelectric point: 4.2
Substance: human procalcitonin amino-terminal flanking peptide [PCATFP]
